Among the data in US6465505B1, “Benzyl-substituted benzimidazoles” (AstraZeneca AB, priority 1996, dated 2002) are IC50 values, retold here.

By IC50 is commonly meant the concentration at which inhibition is half-maximal.

This test concerns acid secretion in isolated rabbit gastric glands. Nature of the test: Acid secretion inhibition in isolated rabbit gastric glands. Particulars: Oryctolagus cuniculus, in vitro, read-out: IC50, inhibiting effect on acid secretion in vitro. Format: cell-based. How it is done:
Acid Secretion Inhibition in Isolated Rabbit Gastric Glands
Inhibiting effect on acid secretion in vitro in isolated rabbit gastric glands was measured as described by Berglindh et al. (1976) Acta Physiol. Scand. 97, 401-414.

For the compound `Cc1nc2c(OCc3ccccc3)cccc2[nH]1` [Compound (B), 4-benzyloxy-2-methyl benzimidazole], the concentration for half-maximal inhibition (IC50) amounted to 7.8 µM. In the case of `Cc1nc2c(NCc3ccccc3)cccc2[nH]1` [Compound (A), 4-benzylamino-2-methylbenzimidazole], the IC50 was found to be 12.9 µM.
